The subject of this test is ID8-vegfA-defb29 murine ovarian serous carcinoma cell line. Description: CPMV and CPMV-AUNP therapy in a tumor mouse model (serous ovarian cancer, IP). The format is in vivo, C57BL/6J mice. On the procedure: FIGS. 3A-3B: (FIG. 3A) Female C57BL/6 mice were inoculated (i.p.) with 2×10^6 ID8-Defb29/Vegf-A cells followed by six weekly injections (i.p.) of PBS control (n=5), 1 μg AUNP (n=3), 100 μg CPMV (n=5), 100 μg CPMV-AUNP (n=7), 100 μg CPMV+1 μg AUNP physical mixture (n=7). Body weight was measured to monitor tumor growth. Data are means±SEM. Data are plotted for a minimum of n=3 per group. (FIG. 3B) Survival curves of the treatment groups.
CPMV and CPMV-AUNP therapy in a tumor mouse model: All animal studies were conducted upon approval and in accordance with the University of California, San Diego Institutional Animal Care and Use Committee (IACUC) guidelines. […] Tumor burden was measured by increase in body weight and data were analyzed and plotted using Graphpad Prism software.
To assay efficacy of the CPMV-AUNP nanoparticle, Applicant used a mouse model of serous ovarian cancer. […] Applicant used luciferase-labeled ID8defb29/vegf cells, allowing us to quantify the disease burden and establishment of disease (data not shown). Imaging is only informative at early time points, before the development of ascites, therefore Applicant used imaging to confirm successful tumor cell injection and tumor formation but then monitored body weight to assess tumor burden and 35 grams body weight was defined as the endpoint for the study. […]

The record followed here is US20250127842A1, “IMMUNE […] THERAPEUTIC NANOPARTICLES” (priority 2021, published 2025).

Regarding “SNTSESFGSGGGSGGC [AUNP, anti-PD-1 peptide SNTSESF (side branch of AUNP-12) with GSGGGSGG linker and carboxy-terminal cysteine, from Genscript]”, the “tumor burden as measured by increase in body weight” value (1 μg weekly IP, up to day 47 (group removed for non-treatment related reasons)) is given as “matched closely the PBS control group”. The “efficacy against disseminated ovarian tumors (survival, tumor burden), in words” value (weekly IP: 100 μg CPMV or CPMV-AUNP, 1 μg AUNP, or 100 μg CPMV+1 μg AUNP) is reported as “no apparent effect”.
